Where “and” joins values, the source holds several entries; their conditions need not be identical. Identical values can stand only once. Records with an inconclusive call do not appear.
Test system: C3AKF1 mice, hamster liver cystadenocarcinoma s.c., tumor weight T/C
Experiment: NCI In Vivo Anticancer Drug Screen. Data for tumor model Cystadenocarcinoma, Liver (No. 1) (Hamster) (subcutaneous) in C3AKF1 (CHKRF1) mice
Conditions: endpoint: mean tumor weight, higher = larger tumour
Procedure: The antitumor activity of compounds was measured in mice bearing transplantable tumors. Survival or tumor size were measured and the results are expressed as the measurement made in the treated group (T) divided by the measurement made in the vehicle treated control group (C). The tumor model used in this assay is Cystadenocarcinoma, Liver (No. 1) (Hamster) (subcutaneous) in C3AKF1 (CHKRF1) mice

[1] = dose: 25.0 mg/kg/injection, schedule: Q01DX010 (ip), vehicle: carboxymethylcellulose (CMC)
[2] = dose: 50.0 mg/kg/injection, schedule: Q01DX010 (ip), vehicle: carboxymethylcellulose (CMC)
[3] = dose: 200.0 mg/kg/injection, schedule: Q01DX010 (ip), vehicle: carboxymethylcellulose (CMC)
[4] = dose: 12.0 mg/kg/injection, schedule: Q01DX010 (ip), vehicle: carboxymethylcellulose (CMC)
[5] = dose: 125.0 mg/kg/injection, schedule: Q01DX010 (ip), vehicle: saline
[6] = dose: 250.0 mg/kg/injection, schedule: Q01DX010 (ip), vehicle: saline
[7] = dose: 500.0 mg/kg/injection, schedule: Q01DX010 (ip), vehicle: saline
[8] = dose: 62.0 mg/kg/injection, schedule: Q01DX010 (ip), vehicle: carboxymethylcellulose (CMC)
[9] = dose: 125.0 mg/kg/injection, schedule: Q01DX010 (ip), vehicle: carboxymethylcellulose (CMC)
[10] = dose: 15.0 mg/kg/injection, schedule: Q01DX010 (ip), vehicle: carboxymethylcellulose (CMC)
[11] = dose: 30.0 mg/kg/injection, schedule: Q01DX010 (ip), vehicle: carboxymethylcellulose (CMC)
[12] = dose: 60.0 mg/kg/injection, schedule: Q01DX010 (ip), vehicle: carboxymethylcellulose (CMC)
[13] = dose: 7.5 mg/kg/injection, schedule: Q01DX010 (ip), vehicle: carboxymethylcellulose (CMC)
[14] = dose: 8.0 mg/kg/injection, schedule: Q01DX010 (ip), vehicle: carboxymethylcellulose (CMC)
[15] = dose: 16.0 mg/kg/injection, schedule: Q01DX010 (ip), vehicle: carboxymethylcellulose (CMC)
[16] = dose: 100.0 mg/kg/injection, schedule: Q01DX010 (ip), vehicle: carboxymethylcellulose (CMC)
[17] = dose: 62.5 mg/kg/injection, schedule: Q01DX010 (ip), vehicle: carboxymethylcellulose (CMC)
[18] = dose: 250.0 mg/kg/injection, schedule: Q01DX010 (ip), vehicle: carboxymethylcellulose (CMC)
[19] = dose: 500.0 mg/kg/injection, schedule: Q01DX010 (ip), vehicle: carboxymethylcellulose (CMC)

In the case of `Nc1ncnc2c1ncn2C1CCCO1` (stereo not given), the T/C [1] is reported as 107 % of control, the T/C [2] is reported as 107 % of control and the T/C [3] is reported as 69 % of control.

`COC(=O)/C=C\C(=O)O` (tested in a mixture with another compound) was tested, and the T/C (dose: 3.5 mg/kg/injection, schedule: Q#A X020 (ip), vehicle: carboxymethylcellulose (CMC)) was 105 % of control, the T/C (dose: 7.5 mg/kg/injection, schedule: Q#A X020 (ip), vehicle: carboxymethylcellulose (CMC)) was 49 % of control and the T/C (dose: 15.0 mg/kg/injection, schedule: Q#A X020 (ip), vehicle: carboxymethylcellulose (CMC)) was 38 % of control.

For `CCCNC(=NC)c1ccc(NC(=O)c2ccc(C(=O)Nc3ccc(C(=NC)NCCC)cc3)cc2)cc1`, the T/C [4] was 99 % of control.

For `c1ccc(CSc2ncnc3nc[nH]c23)nc1`, the T/C (dose: 18.0 mg/kg/injection, schedule: Q01DX010 (ip), vehicle: carboxymethylcellulose (CMC)) was 85 % of control, the T/C (dose: 37.0 mg/kg/injection, schedule: Q01DX010 (ip), vehicle: carboxymethylcellulose (CMC)) was 89 % of control and the T/C (dose: 75.0 mg/kg/injection, schedule: Q01DX010 (ip), vehicle: carboxymethylcellulose (CMC)) was 90 % of control and 104 % of control. For the same compound, the T/C (dose: 150.0 mg/kg/injection, schedule: Q01DX010 (ip), vehicle: carboxymethylcellulose (CMC)) was 86 % of control.

With `COC(=S)SCN(CSC(=S)OC)c1ccccc1Cl` the T/C [5] was 99 % of control, the T/C [6] was 84 % of control and the T/C [7] was 111 % of control.

In the case of `CCOC1=CCCCC1`, the T/C [8] is reported as 94 % of control, the T/C [9] is reported as 106 % of control and the T/C [5] is reported as 48 % of control. The T/C [6] was 95 % of control and the T/C [7] was 99 % of control.

For `CC1CN1C(=O)c1cc(C(=O)N2CC2C)cc(C(=O)N2CC2C)c1` (stereo not given), the T/C [10] was 83 % of control, the T/C [11] was 84 % of control and the T/C [12] was 118 % of control.

For `Clc1ccc(N2CCN(CCCN3CCN(c4cccc(Cl)c4)CC3)CC2)cc1`, the T/C [13] was 71 % of control, the T/C [10] was 62 % of control and the T/C [11] was 52 % of control. For the same compound, the T/C [12] was 69 % of control.

In the case of `Cc1cc(N)c2cc(NC(=O)CCCCCCCCC(=O)Nc3ccc4nc(C)cc(N)c4c3)ccc2n1`, the T/C (dose: 31.0 mg/kg/injection, schedule: Q01DX010 (ip), vehicle: carboxymethylcellulose (CMC)) is reported as 68 % of control, the T/C [8] is reported as 50 % of control and the T/C [9] is reported as 38 % of control.

`CS(=O)(=O)OCCCCCCCCCOS(C)(=O)=O` was tested, and the T/C [14] was 99 % of control and the T/C [15] was 82 % of control.

For `Oc1ccc2ccccc2c1N=Nc1ccccc1`, the T/C [1] was 102 % of control, the T/C [2] was 84 % of control and the T/C [16] was 75 % of control. The T/C [3] was 72 % of control.

With `O=c1[nH]cnc2n[nH]nc12` the T/C [17] was 112 % of control, the T/C [9] was 77 % of control and the T/C [18] was 60 % of control. For the same compound, the T/C [19] was 68 % of control.

In the case of `CC(Cl)CN(Cc1cc(O)c(CN(CC(C)Cl)CC(C)Cl)cc1O)CC(C)Cl` (stereo not given), the T/C [17] is reported as 64 % of control.

With `CCCCCCCCCC(C)(O)C#CC(C)(O)CCCCCCCCC` (stereo not given) the T/C (dose: 12.5 mg/kg/injection, schedule: Q01DX010 (ip), vehicle: carboxymethylcellulose (CMC)) was 86 % of control, the T/C [1] was 74 % of control and the T/C [2] was 96 % of control. The T/C [16] was 64 % of control.

For `CCc1c(CC(=O)O)c2cc(C)ccc2n1Cc1ccc(Cl)cc1`, the T/C [2] was 70 % of control and the T/C [16] was 96 % of control.

In the case of `CSc1ncnc2c1ncn2C1CCCO1` (stereo not given), the T/C [4] is reported as 70 % of control, the T/C [1] is reported as 69 % of control and the T/C [2] is reported as 72 % of control and 79 % of control. The T/C [16] was 63 % of control and 76 % of control.

In the case of `CN(C)c1ccc(/C=C\c2ccnc3ccccc23)cc1`, the T/C (dose: 1.25 mg/kg/injection, schedule: Q01DX010 (ip), vehicle: carboxymethylcellulose (CMC)) is reported as 98 % of control, the T/C (dose: 2.5 mg/kg/injection, schedule: Q01DX010 (ip), vehicle: carboxymethylcellulose (CMC)) is reported as 95 % of control and the T/C (dose: 5.0 mg/kg/injection, schedule: Q01DX010 (ip), vehicle: carboxymethylcellulose (CMC)) is reported as 96 % of control. For the same compound, the T/C (dose: 10.0 mg/kg/injection, schedule: Q01DX010 (ip), vehicle: carboxymethylcellulose (CMC)) was 88 % of control and 89 % of control and the T/C (dose: 20.0 mg/kg/injection, schedule: Q01DX010 (ip), vehicle: carboxymethylcellulose (CMC)) was 67 % of control.

`O=C(O)c1ccc(-c2ccccc2)cc1` was tested, and the T/C [2] was 95 % of control and the T/C [16] was 49 % of control.

With `CCCCn1cnc2c(SC)nc(N)nc21` the T/C [11] was 88 % of control, the T/C [12] was 74 % of control and the T/C (dose: 115.0 mg/kg/injection, schedule: Q01DX010 (ip), vehicle: carboxymethylcellulose (CMC)) was 75 % of control.

`O=S(=O)(O)C(Nc1ccccc1)c1ccccc1` (stereo not given) was tested, and the T/C (dose: 100.0 mg/kg/injection, schedule: Q01DX010 (ip), vehicle: water) was 88 % of control, the T/C (dose: 200.0 mg/kg/injection, schedule: Q01DX010 (ip), vehicle: water) was 66 % of control and the T/C (dose: 400.0 mg/kg/injection, schedule: Q01DX010 (ip), vehicle: water) was 84 % of control.

In the case of `CN(C)CCCN1c2ccccc2Sc2ccc(C(F)(F)F)cc21`, the T/C (dose: 12.0 mg/kg/injection, schedule: Q01DX010 (ip), vehicle: saline) is reported as 84 % of control.

For `C=CC(=O)NCNC(=O)C=C`, the T/C (dose: 15.0 mg/kg/injection, schedule: Q01DX010 (ip), vehicle: saline) was 66 % of control, the T/C (dose: 30.0 mg/kg/injection, schedule: Q01DX010 (ip), vehicle: saline) was 119 % of control and the T/C (dose: 60.0 mg/kg/injection, schedule: Q01DX010 (ip), vehicle: saline) was 62 % of control. For the same compound, the T/C (dose: 120.0 mg/kg/injection, schedule: Q01DX010 (ip), vehicle: saline) was 77 % of control.

With `N#CCSc1nc(N)nc2nc[nH]c12` the T/C (dose: 2.0 mg/kg/injection, schedule: Q01DX010 (ip), vehicle: carboxymethylcellulose (CMC)) was 87 % of control, the T/C (dose: 4.0 mg/kg/injection, schedule: Q01DX010 (ip), vehicle: carboxymethylcellulose (CMC)) was 102 % of control and the T/C [14] was 98 % of control. For the same compound, the T/C [15] was 99 % of control.

In the case of `c1ccc2c(c1)ccc1cc3c(ccc4ccccc43)cc12`, the T/C [17] is reported as 64 % of control, the T/C [9] is reported as 88 % of control and the T/C [18] is reported as 86 % of control.

For `COc1ccc(-c2c(CC(=O)O)c3cc(OC)ccc3n2Cc2ccc(Cl)cc2)cc1`, the T/C [9] was 90 % of control, the T/C [18] was 100 % of control and the T/C [19] was 100 % of control.

`Nc1nc(SCc2ccccc2Cl)c2ncn(C3OC(CO)C(O)C3O)c2n1` (stereo not given) was tested, and the T/C (dose: 6.0 mg/kg/injection, schedule: Q01DX010 (ip), vehicle: carboxymethylcellulose (CMC)) was 104 % of control, the T/C [4] was 85 % of control and the T/C [1] was 112 % of control.

In the case of `CN(N=O)C(N)=O`, the T/C (dose: 3.75 mg/kg/injection, schedule: Q01DX010 (ip), vehicle: carboxymethylcellulose (CMC)) is reported as 95 % of control.

In the case of `CCCCCCCCCCCC[n+]1cccc2ccccc21`, the T/C (dose: 0.25 mg/kg/injection, schedule: Q01DX010 (ip), vehicle: carboxymethylcellulose (CMC)) is reported as 73 % of control, the T/C (dose: 0.5 mg/kg/injection, schedule: Q01DX010 (ip), vehicle: carboxymethylcellulose (CMC)) is reported as 81 % of control and the T/C (dose: 1.0 mg/kg/injection, schedule: Q01DX010 (ip), vehicle: carboxymethylcellulose (CMC)) is reported as 91 % of control.

`CC1(C)N=C(N)N=C(N)N1c1cccc(Br)c1` was tested, and the T/C (dose: 4.4 mg/kg/injection, schedule: Q01DX010 (ip), vehicle: carboxymethylcellulose (CMC)) was 82 % of control and the T/C (dose: 6.6 mg/kg/injection, schedule: Q01DX010 (ip), vehicle: carboxymethylcellulose (CMC)) was 84 % of control.

In the case of `CS(=O)(=O)OCCCOS(C)(=O)=O`, the T/C [10] is reported as 53 % of control, the T/C [11] is reported as 79 % of control and the T/C [12] is reported as 53 % of control.

With `Nc1nc(SCc2ccccc2Cl)c2[nH]cnc2n1` the T/C [4] was 55 % of control, the T/C [1] was 104 % of control and the T/C [2] was 60 % of control and 84 % of control. For the same compound, the T/C [16] was 100 % of control and 109 % of control.

With `Cc1ccc(N2CCN(CCCN3CCN(c4ccc(Cl)cc4)CC3)CC2)cc1` the T/C [13] was 94 % of control, the T/C [10] was 98 % of control and the T/C [11] was 94 % of control.

`Clc1ncnc2c1ncn2C1CCCO1` (stereo not given) was tested, and the T/C [1] was 77 % of control, the T/C [16] was 81 % of control and 93 % of control and the T/C (dose: 400.0 mg/kg/injection, schedule: Q01DX010 (ip), vehicle: carboxymethylcellulose (CMC)) was 52 % of control and 72 % of control. The T/C (dose: 800.0 mg/kg/injection, schedule: Q01DX010 (ip), vehicle: carboxymethylcellulose (CMC)) was 113 % of control.

For `NC(=O)/C=C/C(=O)O` (tested in a mixture with another compound), the T/C (dose: 31.0 mg/kg/injection, schedule: Q#A X010 (ip), vehicle: saline) was 68 % of control.

With `CCN(CC)CC(C)Nc1ccc(C)c2sc3ccccc3c(=O)c12` (stereo not given) the T/C [1] was 98 % of control, the T/C [2] was 87 % of control and the T/C [16] was 76 % of control.

— PubChem BioAssay AID234 (DTP/NCI, 2004)
